Source: patent US4156011A, “Sulphur- and oxygen-containing diaryl compounds” (priority 1974, dated 1979)
Where two headings read alike, the source gives them in different places.

Legend:
[1] = assay type: in vivo; settings: oral, male rats
Protocol: (§1) In female mice, the LD-50 on oral administration is 2,050 mg/kg. In male rats, the LD-0, on oral administration, is greater than 600 mg/kg.

stomach and duodenum = test: Gastric tolerance in fasting rats; assay type: in vivo
From the text: It has furthermore been observed that CRL 40,293 is a well-tolerated substance.

[2] = Reduction of lipids and cholesterol in rats treated orally; assay type: in vivo; settings: daily oral 10 mg/kg, 3-4 days
Clinical tests in man = assay type: in vivo; settings: man; gelatine-coated pills of 400 mg, 2 pills twice daily
Protocol: The clinical tests have made it possible to confirm the pharmacological tests. Thus, in man, CRL 40,293 (Example 23) in the form of gelatine-coated pills containing 400 mg of active ingredient administered at the rate of 2 such pills twice daily has given good results in the treatment of circulatory complaints and especially of lipid disturbances.
CRL 40,386 (Example 8) has been used in man for the treatment of hyperlipidaemia in the form of gelatine-coated pills each containing 300 mg of active ingredient at the rate of 2 to 6 such pills per day.

[3] = system: blood platelet aggregation; test: Anti-aggregation action in rats (graded / in words); assay type: in vivo; parameters: key to Anti-aggregation action: -: zero activity; +: significant activity; ++: intense activity; +++: very intense activity
From the text: (a) by collagen: the inhibition of aggregation (which corresponds to the % transmission), the latency period and the speed; and
(b) by ADP: the inhibition of aggregation (that is to say the % transmission).

in vivo = settings: mouse, oral, female mice
Protocol: as §1

[4] = system: cardio-vascular parameters; test: Cardio-vascular activity in anaesthetised dogs; assay type: in vivo; settings: intraduodenal 100 then 200 mg/kg
Protocol: Three anaesthetised dogs are used for this study. The product is administered intraduodenally as a gum suspension.
Two dogs with the thorax closed and respiring spontaneously are given CRL 40,293 at a dose of 100 mg/kg followed by 200 mg/kg, this second dose being administered 1 hour 30 minutes to 2 hours after the first.
One dog with the thorax opened is given 100 mg/kg, followed after 1 hour by 200 mg/kg, of CRL 40,293.
In these animals the effects of injections of noradrenalin, acetylcholine, tyramine, DMPP, histamine and serotonine were unchanged and the same is true of the effects of occlusion of the carotids and of stimulation of the central end and peripheral end of the vagus.

[5] = Hypo-lipidaemic and hypo-cholesterolaemic action of other products (Table V); assay type: in vivo, rats; settings: for change in vivo at 50 mg/kg: Rattus norvegicus, 72 h, oral 50 mg/kg for 3 days
From the text: The results of the anti-aggregation test and of the hypo-[…] action and hypo-cholesterolaemic action tests of other products of the invention have been […] Table V which follows, the code used being the following (for each dose shown): […]

For `OCCOc1ccc(Oc2ccc(Cl)cc2)cc1` [CRL 40,293, 2-[4-(4-Chlorophenoxy)-phenoxy]ethanol], the LD-0 [1] was “greater than 600 mg/kg”, the “ulceration or inflammation of the stomach and of the duodenum” value (stomach and duodenum; fasting rats, 1 g/kg through a probang, 8 hours after administration) was “no ulceration or inflammation of the stomach and of the duodenum is observed” and the “tolerance (in words)” value (stomach and duodenum; rat, in vivo) was “well-tolerated”. The decrease in cholesterol [2] was 20%, the “decrease in total lipids” value [2] was 20% and the “treatment of circulatory complaints and especially of lipid disturbances” value (Clinical tests in man) was “good results”. The Anti-aggregation action ([3]; 100 mg/kg per day for 3 days) was “+++”, the Anti-aggregation action ([3]; oral 50 mg/kg for 3 days) was “++” and the LD50 (in vivo) was 2050 mg/kg. For the same molecule, the “change of parameters: arterial pressure, pulse rate, left intra-ventricular pressure, dp/dt, vertebral and femoral arterial flow rates, respiration” value ([4]; closed thorax, 2 hours' observation) was “None of the parameters measured changed”, the “effects of noradrenalin, acetylcholine, tyramine, DMPP, histamine and serotonine injections, carotid occlusion and vagus stimulation” value ([4]; dogs) was “unchanged” and the “change of parameters: arterial pressure, pulse rate, left intraventricular pressure, dp/dt, aorta flow rate, work of left ventricle, coronary arterial flow rate” value ([4]; opened thorax, 2 hours' observation) was “None of the parameters measured changed”. The change in vivo at 50 mg/kg ([5]; read-out: Cholesterol (change)) was -40%, the change in vivo at 50 mg/kg ([5]; read-out: Total lipids (change)) was -40% and the “hypo-lipidaemic and hypocholesterolaemic activity (in words)” value ([5]; oral 50 mg/kg) was “good hypo-lipidaemic and hypocholesterolaemic activity”.
